Patent US7868135B2, “Compositions of lipopeptide antibiotic derivatives and methods of use thereof” (priority 2003, dated 2011)
Like-named read-outs stand apart in the source and are kept apart here.

How the values were obtained:
[1] = system: Streptococcus pneumoniae SPN0002 (PISP); experiment: Broad spectrum MIC, Table 17/18 column J; type: cell-based; conditions: condition J of Table 17, in µg/mL
Experimental: (§1) The antimicrobial lipopeptide derivatives described herein were tested for antimicrobial activity against Gram-positive bacteria as follows. The minimum inhibitory concentrations (MIC) of the antimicrobial lipopeptide derivatives of the invention were determined using NCCLS guidelines M7-A6 (2003) with a slight modification in that doubling serial dilutions were used to dilute the test compounds. The broth phase microdilution method was used. Isolated colonies of Staphylococcus aureus (MSSA) from an 18-24 hour blood agar plate cultures were used to inoculate cation adjusted Mueller-Hinton broth (CAMHB) supplemented with 0.625 mM calcium. […] A negative control containing media alone and a positive growth control containing bacteria with media alone were also included. MICs were determined after incubating the plates at about 37° C. for 24 hours. […] In Tables 1 to 16, R is the core cyclic peptide of amphomycin or aspartocin, which can be in the form of a β-isomer, an anhydro, a dianhydro, or any combination thereof. […] Furthermore, a person of skill in the art will appreciate that all the pounds, or groups of compounds, derived from the various combinations of and substituents shown in Tables 1 to 16, are disclosed by the present the same extent as if each compound or group of compounds was set forth individually.
(§2) Antimicrobial lipopeptide derivatives of the instant invention were tested for antimicrobial activity against Gram-positive bacteria in a variety of media conditions. The […] (MIC) of the antimicrobial lipopeptide derivatives were determined as described in Example 376. The various media used are described in Table 17.

[2] = system: Streptococcus pneumoniae SPN0032 (PSSP); experiment: Broad spectrum MIC, Table 17/18 column L; type: cell-based; conditions: condition L of Table 17, in µg/mL
Experimental: as §1, §2

[3] = system: Staphylococcus aureus SAU0031 (VISA); experiment: Broad spectrum MIC, Table 17/18 column G; type: cell-based; conditions: condition G of Table 17, in µg/mL
Experimental: as §1, §2

[4] = system: Staphylococcus aureus SAU0065 (MRSA); experiment: Broad spectrum MIC, Table 17/18 column H; type: cell-based; conditions: condition H of Table 17, in µg/mL
Experimental: as §1, §2

[5] = system: Staphylococcus epidermidis SEP0375 (MRSE); experiment: Broad spectrum MIC, Table 17/18 column I; type: cell-based; conditions: condition I of Table 17, in µg/mL
Experimental: as §1, §2

[6] = system: Streptococcus pneumoniae SPN0023 (PRSP); experiment: Broad spectrum MIC, Table 17/18 column K; type: cell-based; conditions: condition K of Table 17, in µg/mL
Experimental: as §1, §2

[7] = system: Enterococcus faecium EFM0101 (VRE, MDR); experiment: Broad spectrum MIC, Table 17/18 column A; type: cell-based; conditions: condition A of Table 17, in µg/mL
Experimental: as §1, §2

[8] = system: Streptococcus pyogenes SPY0001 (PenS); experiment: Broad spectrum MIC, Table 17/18 column M; type: cell-based; conditions: condition M of Table 17, in µg/mL
Experimental: as §1, §2

[9] = system: Enterococcus faecalis EFS0004 (VSE); experiment: Broad spectrum MIC, Table 17/18 B, C, D (CAMHB; + 0.625 mM calcium; + calcium and 30% bovine serum); type: cell-based; conditions: in µg/mL; for MIC, media condition B: condition B: CAMHB; for MIC, media condition C: condition C: + 0.625 mM calcium; for MIC, media condition D: condition D: + calcium and 30% bovine serum
Experimental: as §1, §2

[10] = system: Staphylococcus aureus SAU0017 (MSSA); experiment: Broad spectrum MIC, Table 17/18 columns E, F (+ 0.625 mM calcium; + calcium and 30% bovine serum); type: cell-based; conditions: in µg/mL; for MIC, media condition E: condition E: + 0.625 mM calcium; for MIC, media condition F: condition F: + calcium and 30% bovine serum
Experimental: as §1, §2

[11] = system: Staphylococcus aureus (MSSA)
How it was run: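 Broth microdilution MIC per NCCLS M7-A6 with doubling serial dilutions, in cation-adjusted Mueller-Hinton broth supplemented with 0.625 mM calcium.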

Compound	MIC, media condition J [1]	MIC, media condition L [2]	MIC, media condition G [3]	MIC, media condition H [4]	MIC, media condition I [5]	MIC, media condition K [6]	MIC, media condition A [7]	MIC, media condition M [8]	MIC, media condition B [9]	MIC, media condition C [9]	MIC, media condition D [9]	MIC, media condition E [10]	MIC, media condition F [10]	MIC ([11]; 24 h)	MIC ([11]; S. aureus (MSSA), CAMHB supplemented with 0.625 mM calcium, 24 hours at about 37° C., a range = compound tested multiple times)
CCCCCCCCCCCCCCC(=O)NC(CC(=O)O)C(=O)NC1C(=O)N2CCCCC2C(=O)NC(C(C)C(=O)O)C(=O)NC(CC(=O)O)C(=O)NCC(=O)NC(CC(=O)O)C(=O)NCC(=O)NC(C(C)N)C(=O)NC(C(C)C)C(=O)N2CCCC2C(=O)NC1C (stereo not shown) [Compound 2, C15-Amphomycin]	0.125	0.5	8	4	4	0.125	4	1	2	1	64	4	8		
CCCCCCCCCCCCCCCC(=O)NC(CC(=O)O)C(=O)NC1C(=O)N2CCCCC2C(=O)NC(C(C)C(=O)O)C(=O)NC(CC(=O)O)C(=O)NCC(=O)NC(CC(=O)O)C(=O)NCC(=O)NC(C(C)N)C(=O)NC(C(C)C)C(=O)N2CCCC2C(=O)NC1C (stereo not shown) [Compound 11, C16-Amphomycin]	0.25	0.25	2-4	2-4	1	0.125	0.5-1	0.25-0.5	0.5	0.5-1	64	0.5	8-16	0.5 µg/mL	
CCCCCCCCCCCCCCCCC(=O)NC(CC(=O)O)C(=O)NC1C(=O)N2CCCCC2C(=O)NC(C(C)C(=O)O)C(=O)NC(CC(=O)O)C(=O)NCC(=O)NC(CC(=O)O)C(=O)NCC(=O)NC(C(C)N)C(=O)NC(C(C)C)C(=O)N2CCCC2C(=O)NC1C (stereo not shown) [Compound 12, C17-Amphomycin]	0.25	0.25-0.5	4-8	1-2	2	0.125	0.5-1	0.5	0.5-1	1	64	1-2	32-64	1 to 2 µg/mL	
CCCCCCCCCCCCOc1ccc(C(=O)NC(CC(=O)O)C(=O)NC2C(=O)N3CCCCC3C(=O)NC(C(C)C(=O)O)C(=O)NC(CC(=O)O)C(=O)NCC(=O)NC(CC(=O)O)C(=O)NCC(=O)NC(C(C)N)C(=O)NC(C(C)C)C(=O)N3CCCC3C(=O)NC2C)cc1 (stereo not shown) [Compound 15, CH3—(CH2)11—O-p-Ph-C(═O)-Amphomycin]	0.125-1	0.25-1	4-8	2-8	2-4	0.125-0.5	2-4	0.5-2	2-4	1-4	>64	2-4	32	2 to 4 µg/mL	
CCCCCCCCCCCCCCC(=O)NC(CC(=O)O)C(=O)NC1C(=O)N2CCCCC2C(=O)NC(C(C)C(=O)O)C(=O)NC(CC(=O)O)C(=O)NCC(=O)NC(CC(=O)O)C(=O)NCC(=O)NC(C(C)NC(=O)[C@H]2CCCN2)C(=O)NC(C(C)C)C(=O)N2CCCC2C(=O)NC1C (stereo partly drawn) [Compound 67, C15-Amphomycin-9-(D-Pro)]	0.5	0.5	8	2	2	0.5	2	0.5-1	2-4	2	64	1-2	8-16	1 to 2 µg/mL	
CCCCCCCCCCCCCCC(=O)NC(CC(=O)O)C(=O)NC1C(=O)N2CCCCC2C(=O)NC(C(C)C(=O)O)C(=O)NC(CC(=O)O)C(=O)NCC(=O)NC(CC(=O)O)C(=O)NCC(=O)NC(C(C)NC(=O)CNC(=O)[C@@H](C)N)C(=O)NC(C(C)C)C(=O)N2CCCC2C(=O)NC1C (stereo partly drawn) [Compound 69, C15-Amphomycin-9-Gly-(D-Ala)]	1	2	8	2	4	1	4	1	8	4	>64	1	32	1 µg/mL	
CCCCCCCCCCCCCCCCC(=O)NC(CC(=O)O)C(=O)NC1C(=O)N2CCCCC2C(=O)NC(C(C)C(=O)O)C(=O)NC(CC(=O)O)C(=O)NCC(=O)NC(CC(=O)O)C(=O)NCC(=O)NC(C(C)NC(=O)CCN)C(=O)NC(C(C)C)C(=O)N2CCCC2C(=O)NC1C (stereo not drawn) [Compound 80, C17-Amphomycin-9-(β-Ala)]	0.125	0.25	8	2	1-2	0.125	0.5-1	0.25-0.5	0.5-1	0.5-1	64	0.5-1	16-32		80/0.5-1 μg/mL
CCCCCCCCCCCCOc1ccc(C(=O)NC(CC(=O)O)C(=O)NC2C(=O)N3CCCCC3C(=O)NC(C(C)C(=O)O)C(=O)NC(CC(=O)O)C(=O)NCC(=O)NC(CC(=O)O)C(=O)NCC(=O)NC(C(C)NC(=O)CN)C(=O)NC(C(C)C)C(=O)N3CCCC3C(=O)NC2C)cc1 (stereo not shown) [Compound 88, CH3—(CH2)11—O-p-Ph-C(═O)-Amphomycin-9-Gly]	0.25	0.25	2-4	0.5-1	0.5-1	0.125	0.25-0.5	0.25-0.5	0.5-1	0.25-0.5	>64	0.5-1	32-64		
CCCCCCCCCCCCNC(=O)NC(CC(=O)O)C(=O)NC1C(=O)N2CCCCC2C(=O)NC(C(C)C(=O)O)C(=O)NC(CC(=O)O)C(=O)NCC(=O)NC(CC(=O)O)C(=O)NCC(=O)NC(C(C)NC(=O)CN)C(=O)NC(C(C)C)C(=O)N2CCCC2C(=O)NC1C (stereo not shown) [Compound 92, CH3—(CH2)11—NH—C(═O)-Amphomycin-9-Gly]	0.25	0.25	4	1-2	0.5-1	0.125	1-2	0.25	6-16	2-4	64	0.25-0.5	8	0.25 to 0.5 µg/mL	
